Test results taken from patent US20040242662A1 (priority 2000, published 2004).

Experiments:
[1] = logP determination by HPLC (EEC Directive 79/831 Annexe V.A8); type: physicochemical; details: gradient method, acetonitrile/0.1% aqueous phosphoric acid
Description: The logP values were determined in accordance with EEC Directive 79/831 Annexe V.A8 by HPLC (gradient method, acetonitrile/0.1% aqueous phosphoric acid).

Phytophthora infestans = type: in vivo; details: tomato, protective; application rate 50 g/ha; evaluation three days after inoculation; 100% means no infection

Structure (SMILES)	chromatographic logP [1]	melting point	Efficacy in % (Phytophthora infestans)
Cc1c(Br)nc(Br)n1S(=O)(=O)c1cccnc1Cl [Example 2]	2.97	154 to 158 °C	
Cc1c(Br)nc(Br)n1S(=O)(=O)c1cccnc1Cl [drawing 19]			94%
Cc1c(Cl)nc(Br)n1S(=O)(=O)c1cccnc1Cl [Example 1, 3-[(2-bromo-4-chloro-5-methyl-1H-imidazol-1-yl)-sulfonyl]-2-chloropyridine]	2.9	144 to 146 °C	
Cc1c(Cl)nc(Br)n1S(=O)(=O)c1cccnc1Cl [drawing 18]			94%
